Assay results published in patent US20210196714A1, “COMPOSITIONS AND METHODS FOR TREATING DISORDERS CHARACTERIZED WITH ABERRANT RAS/MAPK SIGNALING” (Duke University, priority 2018, published 2021).
“Also recorded” adds a separate entry of the source.

Legend:
[1] = tested on: kdm6a morphants; assay: Brain cell proliferation (pHH3 immunostaining) in kdm6a morphants; assay type: in vivo, zebrafish; conditions: 100 nM, 2 dpf, listed as dmDf
Description: Intellectual disability represents a major phenotype in KS, with some studies reporting almost 90% of patients to be affected (see, Wessels, M. W., et al. Clin Dysmorphol 11, 95-102 (2002)). […] Previous studies have shown that defects in proliferation in the developing zebrafish brain can be a proxy for neurodevelopmental and neurocognitive traits, especially in the context of microcephaly (see, Borck, G. et al. Genome Res 25, 609 (2015); Brooks, S. S. et al. Genetics 198, 723-33 (2014); O'Rawe, J. A. et al. Am J Hum Genet 97, 922-32 (2015); Wortmann, S. B. et al. Am J Hum Genet 96, 245-57 (2015)), a phenotype reported commonly in KS (see, Matsumoto, N. & Niikawa, N. Am J Med Genet C Semin Med Genet 117C, 57-65 (2003)).
(§1) For convergence and extension (CE) phenotyping, embryos were scored as described (see, Leitch, C. C. et al. Nat Genet 40, 443-8 (2008)) at the 8-10 somite stage, and images were captured using an AZ100 microscope and NIS Elements software (Nikon). […] The distance between Meckel's (MK) and ceratohyal (CH) cartilages was measured on ventral bright field images with Image J (NIH). […] Fluorescence signal on embryo heads was imaged with the Nikon AZ100 microscope and DS-Qi1MC digital camera using […] Z-stacks to generate extended depth of focus images. Cell numbers were quantified using the ImageJ ICTN plugin (NIH). […]

[2] = tested on: kmt2d+/−×kmt2d+/− progeny; assay: Brain cell proliferation in stable kmt2d mutant intercross progeny; assay type: in vivo, zebrafish; conditions: 100 mM dmDf, 2 dpf
Description: FIG. 12: Treatment with dmDf rescues the defects of stable kmt2d mutant. kmt2d+/− adults were in-crossed and the embryos were then collected at 1 dpf, 2 dpf and 5 dpf to assess dmDf efficacy. […] Error bars show SEM (standard error of the mean).
Although the small molecule testing data in CRISPR F0 mosaic models are consistent with morphant phenotypes (and rescue), experiments recognized the necessity of testing the potential efficacy of dmDf in a stable genetic model that is a better genotypic proxy to human patients. […] In addition to examining proliferation of cells in the brain, experiments assessed whether neural differentiation is affected (see, Van Laarhoven, P. M. et al. Hum Mol Genet 24, 4443-53 (2015)).
as §1

[3] = tested on: zebrafish embryos; assay: Toxicity test in zebrafish embryos; assay type: in vivo
Description: (§2) FIG. 1: In vivo screen using BRAF/MEK/ERK inhibitors. (a) Flow chart of the experimental design. […] For the primary screen, 24 compounds were assessed for their ability to rescue the convergent-extension (CE) phenotype of zebrafish kmt2d morphants, followed by rescue tests of additional phenotypes (jaw and brain) within the kmt2d morphant, or CE of additional genetic KS models. (b) Toxicity results. Twenty embryos at the 8-cell stage were incubated in egg water containing 100 nM, 1 μM, and 10 μM of the 26 compounds. After 24 hours, larvae were scored for toxicity. Black bar: death; grey bar: abnormal morphology; white bar: nontoxic. (c) Embryos were injected with kmt2d-MO at the 2-4 cell stage and soaked in egg water containing 100 nM of each compound at the 8-cell stage. After 24 hours, larvae were scored for CE. […] The efficacy of each compound was determined by a chi-square test in which Class I and Class II were considered together.
(§3) To guard against possible bias, the tool and negative control compounds were interspersed across the experiment and the zebrafish phenotyping team was blinded to the identity of each compound. Typical of small molecule storage, each of the 29 compounds was dissolved in dimethyl sulfoxide (DMSO). […] Next, each compound was diluted serially with egg water and toxicity tested by assaying the percentage of abnormal or dead embryos across three different concentrations (10 μM, 1 μM, 100 nM; FIG. 1B).

[4] = Toxicity test in zebrafish embryos; assay type: in vivo; conditions: zebrafish, in vivo; read-out: LC50 (lethal concentration required to kill 50% of the population)
Description: as §2, §3

Compound: CC(C)c1nc(-c2cccc(NS(=O)(=O)c3c(F)cccc3F)c2F)c(-c2ccnc(N)n2)s1 [Compound 8, desmethyl-Dabrafenib]
- total number of proliferating (pHH3+) cells in brain [1]: significantly increases pHH3+ proliferating cells; also recorded: restored the total number of proliferating cells to wild type levels
- number of proliferating cells in the brain [2]: increases significantly; also recorded: rescued
- toxicity at the concentrations used for pMEK test ([3]; 100 nM or 500 nM): lack of toxicity
- toxicity: pathology (abnormal or dead embryos) ([3]; 100 nM, 24 hours): safe
- LC50 relative to effective in vivo exposure (greater by) ([3]; LC50 vs 0.26 nM exposure): four
- overt pathologies in zebrafish embryos ([3]; zebrafish, in vivo): induced no overt pathologies
- LC50 at 24 h [4]: 1 to 10 µM
